Data taken from patent US20240042019A1, “OPTIMIZED TLR7 LIGANDS AND USES THEREOF” (Genentech, Inc., priority 2021, published 2024).
“Also recorded” adds a separate entry of the source. Oligonucleotides are written 5' to 3', each unit as a sugar letter and its base; * is a phosphorothioate linkage, no mark a phosphodiester; rarer units and linkages stand in square brackets, end groups in braces. Plain capitals give the bases only. m = 2'-O-methyl; r = 2'-OH (RNA); f = 2'-fluoro

Key:
[1] = Particle size of RNA-poly-L-arginine complexes by Dynamic Light Scattering; conditions: 10 minute incubation (FIG. 9)
Experimental: Particle sizes were determined by Dynamic Light Scattering (Wyatt Technology). Samples were placed in multiple wells in a 384-well plate and each well was measured ten times for 5 seconds. Z-averages were reported.

TLR7 [2] = biological target: T1, TLR7 (Homo sapiens, UniProt Q9NYK1); assay: PBMC stimulation with p-L-arginine-complexed RNA ligands, IFN-α ELISA; format: cell-based; conditions: human PBMCs; for TLR7 selectivity (IFN-α versus TNF-α secretion): p-L-arginine delivery (FIG. 7); for IFN-α secretion (TLR7 activity): p-L-arginine delivery, 16 hours, ELISA (FIG. 7)
T1 construct: Peripheral blood mononuclear cells (PBMCs) were obtained from buffy coats from healthy adult donors; endogenous in cells; host or cells: primary human PBMCs from healthy donor buffy coats (TLR7 expressed by pDCs)
T1 sequence (Q9NYK1 27-1049): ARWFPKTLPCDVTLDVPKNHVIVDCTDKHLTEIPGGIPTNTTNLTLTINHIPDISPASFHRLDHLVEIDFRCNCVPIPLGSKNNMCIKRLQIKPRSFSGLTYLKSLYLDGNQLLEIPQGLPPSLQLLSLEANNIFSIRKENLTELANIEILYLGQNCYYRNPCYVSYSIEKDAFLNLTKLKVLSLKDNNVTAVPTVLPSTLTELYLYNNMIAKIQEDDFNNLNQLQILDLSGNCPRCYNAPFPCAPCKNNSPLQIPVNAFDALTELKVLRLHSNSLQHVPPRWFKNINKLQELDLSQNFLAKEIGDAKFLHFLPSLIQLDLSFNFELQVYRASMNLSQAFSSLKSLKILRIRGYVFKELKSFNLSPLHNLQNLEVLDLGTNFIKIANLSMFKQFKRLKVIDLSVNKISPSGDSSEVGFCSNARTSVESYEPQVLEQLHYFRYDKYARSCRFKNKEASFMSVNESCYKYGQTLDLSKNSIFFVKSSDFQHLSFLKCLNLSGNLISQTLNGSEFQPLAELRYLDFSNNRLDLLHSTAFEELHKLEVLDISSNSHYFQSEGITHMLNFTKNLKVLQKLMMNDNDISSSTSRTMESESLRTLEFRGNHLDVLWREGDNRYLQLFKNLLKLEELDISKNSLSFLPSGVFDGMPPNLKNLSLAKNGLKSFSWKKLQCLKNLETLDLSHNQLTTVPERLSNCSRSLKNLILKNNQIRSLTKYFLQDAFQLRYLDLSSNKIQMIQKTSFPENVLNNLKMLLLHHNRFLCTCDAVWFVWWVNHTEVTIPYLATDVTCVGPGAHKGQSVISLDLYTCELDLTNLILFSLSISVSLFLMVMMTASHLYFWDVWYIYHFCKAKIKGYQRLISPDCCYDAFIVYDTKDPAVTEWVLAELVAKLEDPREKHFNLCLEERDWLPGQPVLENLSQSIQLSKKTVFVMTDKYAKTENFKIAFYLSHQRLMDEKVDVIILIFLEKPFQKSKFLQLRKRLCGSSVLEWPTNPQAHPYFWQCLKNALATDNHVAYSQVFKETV
Experimental: (§1) Peripheral blood mononuclear cells (PBMCs) were obtained from buffy coats from healthy adult donors. Buffy coat samples were first diluted with an equal volume of phosphate-buffered saline (PBS). Next, PBMCs were isolated via density gradient centrifugation with Lymphoprep density gradient media ([…] Technologies) and SepMate-50 tubes ([…] Technologies). Samples were centrifuged at 1000 g for 15 minutes. After centrifugation, the upper layers were collected by pouring into a new tube, diluted with PBS, and centrifuged at 450×g for 5 minutes. To lyse red blood cells, cell pellets were resuspended with 10 mL Ammonium-Chloride-Potassium (ACK) Lysis Buffer and incubated for 8 minutes at room temperature. After lysis, cells were washed with PBS and passed through two 70 μm cell strainers. Viable cell counts were determined with a Vi-CELL cell counter (Beckman Coulter). […] Guanosine was added between about 20 and about 30 minutes before the addition of poly-[…])-complexed RNA. […] After mixing by pipetting up and down, the reaction was incubated for 10 minutes, pipetted up and down again, and then added to the cells. In some experiments, RNA ligands were used at a final concentration of 0.6 μg/ml. Where indicated as “+2'3' cGMP”, 2'3' cyclic GMP purchased from eMolecules was complexed together with the RNA ligands. The final concentration of 2'3' cyclic GMP was 5 μg/ml. p-L-arginine was adjusted accordingly to keep the mass ratio of nucleic acid:p-L-arginine constant. Cell culture supernatants were collected 15-18 hours after stimulation and stored at -80° C. Cytokines in cell culture supernatants were detected with the BD OptEIA human TNF ELISA Set (BD Biosciences), and either Invitrogen IFN alpha Human Matched Antibody Pair kit (Thermo Fisher Scientific) or Human IFN Alpha Multi-Subtype ELISA Kit (PBL Assay Science). To test the effects of the RNA ligands described in Example 1 on TLR7 and TLR8 activation, PBMCs were stimulated with the RNA ligands using p-L-arginine complex delivery, delivery with DOTAP, or delivery without a carrier. Activity of TLR7 and TLR8 was assessed based on measurements of IFN-α or TNF-α by enzyme-linked immunosorbent assays (ELISA). In this setting, as depicted in FIG. 6, IFN-α induced by small RNAs is derived from TLR7 expressed by pDCs, or from RIG-I expressed by monocytes. In contrast, TNF-α secretion is derived from monocytes and serves as an indication of TLR8 activation. As shown in this figure, the p-L-arginine delivery restricts most of the activation to TLRs. First, the effects of the RNA ligands on TLR7 and TLR8 activation using p-L-arginine complex delivery were tested.

TLR8 [3] = biological target: T2, TLR8 (Homo sapiens, UniProt Q9NR97); assay: PBMC stimulation with DOTAP-complexed RNA ligands, TNF-α ELISA; format: cell-based; conditions: human PBMCs, DOTAP delivery, 0.6 μg/ml and 2 μg/ml, 16 hours (FIGS. 10A-10B)
T2 construct: Peripheral blood mononuclear cells (PBMCs) were obtained from buffy coats from healthy adult donors; endogenous in cells; host or cells: primary human PBMCs from healthy donor buffy coats (TLR8 in monocytes)
T2 sequence (Q9NR97 27-1041): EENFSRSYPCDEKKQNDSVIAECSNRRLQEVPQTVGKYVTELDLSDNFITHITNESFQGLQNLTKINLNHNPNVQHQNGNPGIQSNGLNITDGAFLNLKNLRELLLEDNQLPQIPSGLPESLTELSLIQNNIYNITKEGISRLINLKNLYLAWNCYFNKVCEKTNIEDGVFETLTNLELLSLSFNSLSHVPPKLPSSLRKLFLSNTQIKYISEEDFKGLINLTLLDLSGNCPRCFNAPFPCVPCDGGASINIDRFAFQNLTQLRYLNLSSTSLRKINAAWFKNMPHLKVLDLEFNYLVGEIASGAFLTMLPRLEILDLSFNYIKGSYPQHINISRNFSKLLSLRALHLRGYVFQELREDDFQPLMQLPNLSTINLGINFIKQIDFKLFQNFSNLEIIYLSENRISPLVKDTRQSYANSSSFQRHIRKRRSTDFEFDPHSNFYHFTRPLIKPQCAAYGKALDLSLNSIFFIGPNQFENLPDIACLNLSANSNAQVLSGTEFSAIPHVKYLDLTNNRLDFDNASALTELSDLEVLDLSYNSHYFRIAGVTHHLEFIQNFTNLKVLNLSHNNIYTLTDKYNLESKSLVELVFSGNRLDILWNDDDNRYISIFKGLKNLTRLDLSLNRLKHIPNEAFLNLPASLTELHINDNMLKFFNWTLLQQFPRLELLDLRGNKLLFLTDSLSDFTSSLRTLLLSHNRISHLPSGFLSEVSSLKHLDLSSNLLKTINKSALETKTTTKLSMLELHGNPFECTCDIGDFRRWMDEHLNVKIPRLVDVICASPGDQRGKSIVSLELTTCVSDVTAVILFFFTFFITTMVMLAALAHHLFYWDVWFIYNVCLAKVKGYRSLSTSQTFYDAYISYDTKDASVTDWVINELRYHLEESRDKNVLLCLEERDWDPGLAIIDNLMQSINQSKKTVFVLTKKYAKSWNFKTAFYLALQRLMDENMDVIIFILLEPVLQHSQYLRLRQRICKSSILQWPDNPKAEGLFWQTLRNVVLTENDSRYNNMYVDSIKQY

TLR8 [4] = biological target: T2, TLR8; assay: PBMC stimulation with p-L-arginine-complexed RNA ligands, TNF-α ELISA; format: cell-based; conditions: human PBMCs
Experimental: as §1

TLR7 [5] = biological target: T1, TLR7; assay: PBMC stimulation with DOTAP-complexed RNA ligands, IFN-α ELISA; format: cell-based; conditions: human PBMCs, DOTAP delivery, 0.6 μg/ml and 2 μg/ml, 16 hours (FIGS. 10A-10B)
[6] = p-L-arginine complexes with 2′3′ cyclic GMP 5 μg/ml, ORN 0.6 μg/ml (FIG. 12)

For “C*C*G*A*G*C*C*G*C*U*U*U*U*C*C*C (CCGAGCCGCUUUUCCC; all phosphorothioate, sugars by position not given here) [ORN7013, reference compound]”, the “Particle size (diameter) of RNA-poly-L-arginine complexes” value (“Particle size (diameter)” below) [1] was “behaved similarly”, the “TLR7 selectivity (IFN-α versus TNF-α secretion)” value (from here on “TLR7 selectivity”) (TLR7 [2]) was “limited TLR7 selectivity; also recorded: less TLR7-selective” and the “IFN-α secretion (TLR7 activity)” value (TLR7 [2]) was “limited TLR7 selectivity and activity; also recorded: less TLR7-selective and active”.

For “C*C*G*A*G*C*C*G*C*fU-U*fU-U*C*C*C (rC*rC*rG*rA*rG*rC*rC*rG*rC*fUrU*fUrU*rC*rC*rC) [ORN7015, 2′-fluoro modified version of ORN7013]”, the “Particle size (diameter)” value [1] was “behaved similarly”, the “TLR7 selectivity” value (TLR7 [2]) was “moderately selective” and the “IFN-α secretion (TLR7 activity)” value (TLR7 [2]) was “moderately selective and active”.

For “C*C*G*A*G*C*C*G*C*mU-U*fU-U*C*C*C (rC*rC*rG*rA*rG*rC*rC*rG*rC*mUrU*fUrU*rC*rC*rC) [ORN7016, 2′-fluoro- and 2′O-methyl-modified version of ORN7013]”, the “Particle size (diameter)” value [1] was “behaved similarly”, the “TLR7 selectivity” value (TLR7 [2]) was “TLR7-selective” and the “IFN-α secretion (TLR7 activity)” value (TLR7 [2]) was “weakly active”.

For “C*C*U*U*C*U*U*C*U*U*C*U*U*C*U*U*C*U*U*C (rC*rC*rU*rU*rC*rU*rU*rC*rU*rU*rC*rU*rU*rC*rU*rU*rC*rU*rU*rC) [ORN7012]”, the “TNF-α secretion (TLR8 activity)” value (TLR8 [3]) was “further increased TLR8 activation”, the “Particle size (diameter)” value [1] was “behaved similarly” and the “TNF-α secretion (TLR8 activity)” value (TLR8 [4]; p-L-arginine delivery, 16 hours, ELISA (FIG. 7)) was “TLR8-active”.

For “C-G-G-mC-U-C-G-G-C-A-G-A-A-G-C-C-G-G-G-C-C (rCrGrGmCrUrCrGrGrCrArGrArArGrCrCrGrGrGrCrC; hairpin) [ORN70230me, 2′O-methyl-C-modified ORN7023]”, the “Particle size (diameter)” value [1] was “behaved similarly”, the “TLR7 selectivity” value (TLR7 [2]) was “maintained TLR7 selectivity; also recorded: TLR7-selective” and the “IFN-α secretion (TLR7 activity)” value (TLR7 [2]) was “further increasing the activity; also recorded: highly active”.

With “U-mC-U-mC-U-mC-U-mC-U-mC-U-mC-U-mC-U-mC-U-mC-U-C (rUmCrUmCrUmCrUmCrUmCrUmCrUmCrUmCrUmCrUrC) [ORN7006, 2′O-methyl-modified version of ORN7005]” the “IFN-α secretion (TLR7 activity)” value (TLR7 [5]) was “reduced both TLR8 and TLR7 activation”, the “TNF-α secretion (TLR8 activity)” value (TLR8 [3]) was “reduced both TLR8 and TLR7 activation” and the “TNF-α secretion when co-delivered with 2′3′ cyclic GMP” value (TLR8 [4]; [6]) was “little to no measurable TNF-α”. The “IFN-α secretion when co-delivered with 2′3′ cGMP” value (TLR7 [2]; [6]) was “robust IFN-a induction”.
